Assay results from US6737383B1, “Herbicidal oxadiazolidines” (priority 1999, dated 2004).

Legend:
rape = experiment: Test B pre/postemergence rape; type: in vivo, Brassica napus
Summary of the method: (§1)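 Herbicidal effect was estimated by eye on a ten-point control scale after plants spent twelve to sixteen days in a greenhouse following soil or foliar treatment. Foliar sprays targeted plants at one to four leaves; all doses were formulated in a non-phytotoxic solvent with surfactant.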

surinam grass = experiment: Test B pre/postemergence surinam grass; type: in vivo, Brachiaria decumbens
Summary of the method: as §1

bedstraw = experiment: Test B pre/postemergence bedstraw; type: in vivo, Galium aparine
Summary of the method: as §1

soybean = experiment: Test B pre/postemergence soybean; type: in vivo, Glycine max
Summary of the method: as §1

corn = experiment: Test B pre/postemergence corn; type: in vivo, Zea mays
Summary of the method: as §1

cocklebur = experiment: Test B pre/postemergence cocklebur; type: in vivo, Xanthium strumarium
Summary of the method: as §1

velvetleaf = experiment: Test B pre/postemergence velvetleaf; type: in vivo, Abutilon theophrasti
Summary of the method: as §1

crabgrass = experiment: Test B pre/postemergence crabgrass; type: in vivo, Digitaria sanguinalis
Summary of the method: as §1

wheat = experiment: Test B pre/postemergence wheat; type: in vivo, Triticum aestivum
Summary of the method: as §1

giant foxtail = experiment: Test B pre/postemergence giant foxtail; type: in vivo, Setaria faberii
Summary of the method: as §1

morningglory = experiment: Test B pre/postemergence morningglory; type: in vivo, Ipomoea hederacea
Summary of the method: as §1

wild oat = experiment: Test B pre/postemergence wild oat; type: in vivo, Avena fatua
Summary of the method: as §1

blackgrass = experiment: Test B pre/postemergence blackgrass; type: in vivo, Alopecurus myosuroides
Summary of the method: as §1

[1] = Postemergence, Rate 125 g/ha, scale of 0 to 10 where 0 is no effect and 10 is complete control
[2] = Preemergence, Rate 62 g/ha, scale of 0 to 10 where 0 is no effect and 10 is complete control
[3] = Preemergence, Rate 125 g/ha, 0 is no effect, 10 is complete control
[4] = Preemergence, Rate 250 g/ha, scale 0 to 10, 0 is no effect, 10 is complete control
[5] = Preemergence, Rate 500 g/ha, scale 0 to 10 (0 no effect, 10 complete control)
[6] = Rate 62 g/ha, Postemergence, scale of 0 to 10 where 0 is no effect and 10 is complete control
[7] = Rate 250 g/ha, Postemergence, scale 0 to 10, 0 is no effect, 10 is complete control
[8] = Rate 500 g/ha, Postemergence, scale 0 to 10

CC(C)N(C(=O)n1oc(=O)n([C@@H](C)c2ccccc2)c1=O)c1ccccc1 [Compound 173]
0: Rape plant response rating (rape; [1]) | Rape plant response rating (rape; [2]) | Rape plant response rating (0 to 10 scale) (rape; [3]) | Rape plant response rating (rape; [4]) | Rape plant response rating (rape; [5]) | Rape plant response rating (rape; [6]) | Plant response rating, Rape (rape; [7]) | Rape plant response rating (rape; [8]) | B. signalgrass plant response rating (surinam grass; [1]) | B. signalgrass plant response rating (surinam grass; [2]) | B. signalgrass plant response rating (0 to 10 scale) (surinam grass; [3]) | B. signalgrass plant response rating (surinam grass; [6]) | Plant response rating, B. signalgrass (surinam grass; [7]) | B. signalgrass plant response rating (surinam grass; Rate 500 g/ha, Postemergence, scale 0 to 10, 0 no effect, 10 complete control) | Bedstraw plant response rating (bedstraw; [1]) | Bedstraw plant response rating (bedstraw; [2]) | Bedstraw plant response rating (0 to 10 scale) (bedstraw; [3]) | Bedstraw plant response rating (bedstraw; [4]) | Bedstraw plant response rating (bedstraw; [5]) | Bedstraw plant response rating (bedstraw; [6]) | Soybean plant response rating (soybean; [2]) | Soybean plant response rating (0 to 10 scale) (soybean; [3]) | Soybean plant response rating (soybean; [4]) | Corn plant response rating (corn; [1]) | Corn plant response rating (corn; [2]) | Corn plant response rating (0 to 10 scale) (corn; [3]) | Corn plant response rating (corn; [4]) | Corn plant response rating (corn; [5]) | Corn plant response rating (corn; [6]) | Plant response rating, Corn (corn; [7]) | Corn plant response rating (corn; [8]) | Cocklebur plant response rating (cocklebur; [1]) | Cocklebur plant response rating (cocklebur; [2]) | Cocklebur plant response rating (0 to 10 scale) (cocklebur; [3]) | Cocklebur plant response rating (cocklebur; [4]) | Cocklebur plant response rating (cocklebur; [5]) | Cocklebur plant response rating (cocklebur; [6]) | Velvetleaf plant response rating (velvetleaf; [2]) | Velvetleaf plant response rating (0 to 10 scale) (velvetleaf; [3]) | Velvetleaf plant response rating (velvetleaf; [4]) | Velvetleaf plant response rating (velvetleaf; [5]) | Plant response rating, Velvetleaf (velvetleaf; [7]) | Velvetleaf plant response rating (velvetleaf; [8]) | Crabgrass plant response rating (crabgrass; [6]) | Wheat plant response rating (wheat; [2]) | Wheat plant response rating (0 to 10 scale) (wheat; [3]) | Wheat plant response rating (wheat; [4]) | Wheat plant response rating (wheat; [5]) | Plant response rating, Wheat (wheat; [7]) | Wheat plant response rating (wheat; [8]) | Giant foxtail plant response rating (giant foxtail; [1]) | Giant foxtail plant response rating (giant foxtail; [6]) | Plant response rating, Giant foxtail (giant foxtail; [7]) | Giant foxtail plant response rating (giant foxtail; [8]) | Morningglory plant response rating (morningglory; [2]) | Morningglory plant response rating (0 to 10 scale) (morningglory; [3]) | Morningglory plant response rating (morningglory; [4]) | Morningglory plant response rating (morningglory; [5]) | Wild oats plant response rating (wild oat; [2]) | Wild oats plant response rating (0 to 10 scale) (wild oat; [3]) | Plant response rating, Wild oats (wild oat; [7]) | Wild oats plant response rating (wild oat; [8]) | Blackgrass plant response rating (blackgrass; [1]) | Blackgrass plant response rating (blackgrass; [2]) | Blackgrass plant response rating (0 to 10 scale) (blackgrass; [3]) | Blackgrass plant response rating (blackgrass; [4]) | Blackgrass plant response rating (blackgrass; [6])
5: Plant response rating, Crabgrass (crabgrass; [7])
6: Crabgrass plant response rating (0 to 10 scale) (crabgrass; [3]) | Giant foxtail plant response rating (giant foxtail; [2]) | Blackgrass plant response rating (blackgrass; [5])
8: Crabgrass plant response rating (crabgrass; [4]) | Crabgrass plant response rating (crabgrass; [8])
1: Plant response rating, Cocklebur (cocklebur; [7])
4: B. signalgrass plant response rating (surinam grass; [5]) | Plant response rating, Bedstraw (bedstraw; [7]) | Soybean plant response rating (soybean; [8]) | Crabgrass plant response rating (crabgrass; [1])
2: Soybean plant response rating (soybean; [1]) | Soybean plant response rating (soybean; [6]) | Plant response rating, Soybean (soybean; [7]) | Cocklebur plant response rating (cocklebur; [8]) | Crabgrass plant response rating (crabgrass; [2]) | Wild oats plant response rating (wild oat; [4]) | Plant response rating, Blackgrass (blackgrass; [7]) | Blackgrass plant response rating (blackgrass; [8])
9: Crabgrass plant response rating (crabgrass; [5]) | Giant foxtail plant response rating (0 to 10 scale) (giant foxtail; [3]) | Giant foxtail plant response rating (giant foxtail; [4])
3: B. signalgrass plant response rating (surinam grass; [4]) | Soybean plant response rating (soybean; [5]) | Wild oats plant response rating (wild oat; [5])
10: Giant foxtail plant response rating (giant foxtail; [5]) | Morningglory plant response rating (morningglory; [1]) | Plant response rating, Morningglory (morningglory; [7]) | Morningglory plant response rating (morningglory; [8])
7: Morningglory plant response rating (morningglory; [6])
